# ChEMBL document CHEMBL5137068, “Discovery of Hexahydrofuro[3,2-b]furans as New Kinase-Selective and Orally Bioavailable JAK3 Inhibitors for the Treatment of Leukemia Harboring a JAK3 Activating Mutant” (J Med Chem, 2022)
# Activity calls are given as the source filed them. The calls are words filed in the database; no cut-off is given here.
# How the values were obtained:
# [1] = Half life in 12 hr fasted SPF Sprague-Dawley rat at 5 mg/kg, iv upon 2 hrs fasting post-administration measured upto 24 hrs; type: ADME, organism-based; conditions: in vivo
# [2] = Half life in 12 hr fasted SPF Sprague-Dawley rat at 15 mg/kg, po upon 2 hrs fasting post-administration measured upto 24 hrs; type: ADME, organism-based; conditions: in vivo
# [3] = biological target: Cyclin-Y/Cyclin-dependent kinase 16 (Homo sapiens) (UniProt Q00536+Q8ND76); assay: Inhibition of human CDK16/cyclin-Y at 0.5 uM relative to control; type: protein-complex assay
# [4] = biological target: Non-receptor tyrosine-protein kinase TYK2 (Homo sapiens, UniProt P29597); assay: Inhibition of human TYK2 at 0.5 uM relative to control
# Sequence of Non-receptor tyrosine-protein kinase TYK2 (P29597 whole entry): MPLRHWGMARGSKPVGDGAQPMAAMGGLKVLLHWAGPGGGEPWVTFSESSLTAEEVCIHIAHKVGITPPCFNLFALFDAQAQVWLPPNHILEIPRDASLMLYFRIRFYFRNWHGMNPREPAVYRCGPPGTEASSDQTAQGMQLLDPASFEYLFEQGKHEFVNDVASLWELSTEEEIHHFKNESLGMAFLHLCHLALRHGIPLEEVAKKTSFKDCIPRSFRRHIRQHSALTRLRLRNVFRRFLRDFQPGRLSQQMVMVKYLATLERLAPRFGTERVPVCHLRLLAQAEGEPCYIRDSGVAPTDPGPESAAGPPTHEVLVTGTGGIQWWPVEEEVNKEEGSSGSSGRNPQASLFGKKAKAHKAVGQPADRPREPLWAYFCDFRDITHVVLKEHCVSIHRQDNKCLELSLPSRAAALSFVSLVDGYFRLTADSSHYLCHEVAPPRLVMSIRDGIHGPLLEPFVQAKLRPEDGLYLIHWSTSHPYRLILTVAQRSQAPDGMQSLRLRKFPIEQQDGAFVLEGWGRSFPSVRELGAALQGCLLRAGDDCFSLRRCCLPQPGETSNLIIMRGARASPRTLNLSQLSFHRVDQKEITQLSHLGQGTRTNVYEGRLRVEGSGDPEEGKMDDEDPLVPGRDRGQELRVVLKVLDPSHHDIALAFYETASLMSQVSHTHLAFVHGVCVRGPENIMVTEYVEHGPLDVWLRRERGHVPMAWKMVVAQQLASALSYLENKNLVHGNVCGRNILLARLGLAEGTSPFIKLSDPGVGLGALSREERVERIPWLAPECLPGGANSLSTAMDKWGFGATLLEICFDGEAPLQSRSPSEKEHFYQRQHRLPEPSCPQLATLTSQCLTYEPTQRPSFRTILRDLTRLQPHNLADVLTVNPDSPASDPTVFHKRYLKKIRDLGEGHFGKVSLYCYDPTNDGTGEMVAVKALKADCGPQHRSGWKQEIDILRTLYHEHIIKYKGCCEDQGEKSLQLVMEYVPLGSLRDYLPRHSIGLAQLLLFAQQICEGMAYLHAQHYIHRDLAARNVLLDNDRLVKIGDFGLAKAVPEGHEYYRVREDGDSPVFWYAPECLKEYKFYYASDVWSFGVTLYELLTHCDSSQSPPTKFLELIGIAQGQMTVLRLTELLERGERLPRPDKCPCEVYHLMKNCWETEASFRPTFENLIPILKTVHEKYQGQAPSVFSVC
# [5] = biological target: Tyrosine-protein kinase JAK1 (Homo sapiens, UniProt P23458); assay: Inhibition of human JAK1
# Sequence of Tyrosine-protein kinase JAK1 (P23458 whole entry): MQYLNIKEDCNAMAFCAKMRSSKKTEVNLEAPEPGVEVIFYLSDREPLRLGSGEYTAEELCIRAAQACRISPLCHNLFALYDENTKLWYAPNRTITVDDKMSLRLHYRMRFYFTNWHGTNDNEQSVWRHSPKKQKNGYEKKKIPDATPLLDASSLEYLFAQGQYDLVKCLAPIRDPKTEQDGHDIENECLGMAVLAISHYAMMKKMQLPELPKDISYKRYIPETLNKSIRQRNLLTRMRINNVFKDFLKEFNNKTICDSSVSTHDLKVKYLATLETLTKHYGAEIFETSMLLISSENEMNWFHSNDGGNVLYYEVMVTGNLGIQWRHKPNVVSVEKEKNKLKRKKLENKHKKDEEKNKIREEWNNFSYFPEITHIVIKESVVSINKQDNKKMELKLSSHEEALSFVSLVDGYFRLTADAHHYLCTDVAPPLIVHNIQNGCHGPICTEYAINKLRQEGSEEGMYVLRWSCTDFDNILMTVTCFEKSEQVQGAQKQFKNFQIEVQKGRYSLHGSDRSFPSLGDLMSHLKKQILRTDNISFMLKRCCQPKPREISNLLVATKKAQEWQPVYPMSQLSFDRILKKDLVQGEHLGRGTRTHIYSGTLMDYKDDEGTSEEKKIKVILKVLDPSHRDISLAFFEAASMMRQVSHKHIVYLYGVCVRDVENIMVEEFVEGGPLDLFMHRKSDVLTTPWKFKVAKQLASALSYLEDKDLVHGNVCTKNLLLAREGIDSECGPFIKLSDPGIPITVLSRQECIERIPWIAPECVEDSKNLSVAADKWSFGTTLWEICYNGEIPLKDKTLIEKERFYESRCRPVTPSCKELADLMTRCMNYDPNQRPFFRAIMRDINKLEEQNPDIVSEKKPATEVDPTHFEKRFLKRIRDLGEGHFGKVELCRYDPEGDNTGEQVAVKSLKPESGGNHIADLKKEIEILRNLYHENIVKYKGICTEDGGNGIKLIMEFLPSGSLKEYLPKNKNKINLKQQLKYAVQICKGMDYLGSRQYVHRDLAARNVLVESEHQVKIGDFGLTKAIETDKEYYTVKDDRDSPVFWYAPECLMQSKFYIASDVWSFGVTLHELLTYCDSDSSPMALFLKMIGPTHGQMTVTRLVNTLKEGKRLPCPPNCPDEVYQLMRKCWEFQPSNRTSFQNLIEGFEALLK
# [6] = biological target: T1, Signal transducer and activator of transcription 5A (Homo sapiens) (UniProt P42229); assay: Inhibition of STAT5 in human U-937 cells assessed as decrease in P-STAT5 phosphorylation at 200 uM pretreated for 10 hrs followed by compound washout by immunoblotting analysis; type: cell-based
# T1 sequence (whole entry): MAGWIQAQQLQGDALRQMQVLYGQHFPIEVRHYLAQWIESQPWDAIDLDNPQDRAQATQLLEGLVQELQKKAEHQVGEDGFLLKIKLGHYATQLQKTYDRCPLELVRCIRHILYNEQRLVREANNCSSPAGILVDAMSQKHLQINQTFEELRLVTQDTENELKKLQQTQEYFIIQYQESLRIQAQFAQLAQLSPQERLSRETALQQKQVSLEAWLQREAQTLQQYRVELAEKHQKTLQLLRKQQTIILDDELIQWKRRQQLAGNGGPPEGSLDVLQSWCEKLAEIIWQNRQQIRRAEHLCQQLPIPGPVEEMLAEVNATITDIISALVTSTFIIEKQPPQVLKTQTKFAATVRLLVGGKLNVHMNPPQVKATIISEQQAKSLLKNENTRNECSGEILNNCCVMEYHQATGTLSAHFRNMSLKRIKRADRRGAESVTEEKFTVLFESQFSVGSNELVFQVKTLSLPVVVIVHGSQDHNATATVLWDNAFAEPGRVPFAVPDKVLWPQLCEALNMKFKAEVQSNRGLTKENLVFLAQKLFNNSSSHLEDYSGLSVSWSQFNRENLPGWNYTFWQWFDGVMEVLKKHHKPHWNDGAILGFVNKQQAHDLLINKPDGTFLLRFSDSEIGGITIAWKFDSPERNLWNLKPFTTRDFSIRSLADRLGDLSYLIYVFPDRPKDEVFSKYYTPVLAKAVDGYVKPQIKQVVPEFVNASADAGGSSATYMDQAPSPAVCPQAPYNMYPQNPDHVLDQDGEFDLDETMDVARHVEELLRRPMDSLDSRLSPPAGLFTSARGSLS
# [7] = biological target: T2, Tyrosine-protein kinase JAK3 (Homo sapiens) (UniProt P52333); assay: Inhibition of JAK3 in human U-937 cells assessed as decrease in P-JAK3 phosphorylation at 200 uM pretreated for 10 hrs followed by compound washout by immunoblotting analysis; type: cell-based
# T2 sequence (whole entry): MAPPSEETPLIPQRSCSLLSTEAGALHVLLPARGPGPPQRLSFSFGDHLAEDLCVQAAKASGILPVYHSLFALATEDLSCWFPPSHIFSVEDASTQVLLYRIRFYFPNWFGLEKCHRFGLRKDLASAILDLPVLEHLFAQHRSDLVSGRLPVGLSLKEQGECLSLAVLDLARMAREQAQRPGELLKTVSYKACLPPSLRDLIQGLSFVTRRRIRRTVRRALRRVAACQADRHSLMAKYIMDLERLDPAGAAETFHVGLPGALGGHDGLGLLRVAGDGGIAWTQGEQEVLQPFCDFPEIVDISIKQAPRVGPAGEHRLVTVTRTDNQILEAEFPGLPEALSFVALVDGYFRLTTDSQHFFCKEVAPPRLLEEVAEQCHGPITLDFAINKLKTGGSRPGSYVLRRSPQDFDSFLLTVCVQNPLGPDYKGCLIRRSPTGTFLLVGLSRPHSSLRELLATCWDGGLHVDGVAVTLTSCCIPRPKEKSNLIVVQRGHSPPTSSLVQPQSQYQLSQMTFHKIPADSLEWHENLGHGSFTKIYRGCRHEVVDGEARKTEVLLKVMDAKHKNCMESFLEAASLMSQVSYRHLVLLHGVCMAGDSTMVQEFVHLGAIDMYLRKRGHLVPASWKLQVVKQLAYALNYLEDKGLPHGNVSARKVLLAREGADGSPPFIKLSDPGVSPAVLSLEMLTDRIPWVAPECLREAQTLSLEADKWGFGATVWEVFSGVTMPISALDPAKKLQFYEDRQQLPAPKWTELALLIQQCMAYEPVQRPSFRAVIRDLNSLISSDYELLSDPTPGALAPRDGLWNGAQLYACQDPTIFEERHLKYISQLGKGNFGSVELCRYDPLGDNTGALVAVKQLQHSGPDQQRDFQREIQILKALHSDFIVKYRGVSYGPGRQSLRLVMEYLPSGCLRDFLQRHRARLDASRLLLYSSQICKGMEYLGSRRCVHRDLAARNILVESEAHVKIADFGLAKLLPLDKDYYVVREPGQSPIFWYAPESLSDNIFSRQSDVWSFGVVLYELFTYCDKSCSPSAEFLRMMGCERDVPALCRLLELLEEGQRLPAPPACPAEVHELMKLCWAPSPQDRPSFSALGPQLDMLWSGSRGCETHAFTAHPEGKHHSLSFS
# U-937 [8] = assay: Induction of cell cycle arrest in human U-937 cells assessed as accumulation at S phase at 100 nM measured after 24 hrs by propidium iodide staining based flow cytometric analysis (reference value: 15.35%); type: functional
# U-937 [9] = assay: Induction of cell cycle arrest in human U-937 cells assessed as accumulation at G2/M phase at 100 nM measured after 24 hrs by propidium iodide staining based flow cytometric analysis (reference value: 21.41%); type: functional
# U-937 [10] = assay: Induction of cell cycle arrest in human U-937 cells assessed as downregulation of CDK2 at 0 to 300 nM measured after 24 hrs by western blot analysis; type: functional, cell-based; conditions: dose 0-300 nM
# U-937 [11] = assay: Induction of cell cycle arrest in human U-937 cells assessed as downregulation of Cyclic B1 at 0 to 300 nM measured after 24 hrs by western blot analysis; type: functional, cell-based; conditions: dose 0-300 nM
# U-937 [12] = assay: Antitumor activity against human U-937 cells xenografted in po dosed CB17-SCID mouse assessed as tumor growth inhibition twice daily for 10 days; type: functional, organism-based; conditions: time 10.0 day, DDE = dose-dependent effect
# [13] = biological target: NUAK family SNF1-like kinase 1 (Homo sapiens) (UniProt O60285); assay: Inhibition of human ARK5 at 0.5 uM assessed as competition rate relative to control
# Sequence of NUAK family SNF1-like kinase 1 (Homo sapiens) (O60285 whole entry): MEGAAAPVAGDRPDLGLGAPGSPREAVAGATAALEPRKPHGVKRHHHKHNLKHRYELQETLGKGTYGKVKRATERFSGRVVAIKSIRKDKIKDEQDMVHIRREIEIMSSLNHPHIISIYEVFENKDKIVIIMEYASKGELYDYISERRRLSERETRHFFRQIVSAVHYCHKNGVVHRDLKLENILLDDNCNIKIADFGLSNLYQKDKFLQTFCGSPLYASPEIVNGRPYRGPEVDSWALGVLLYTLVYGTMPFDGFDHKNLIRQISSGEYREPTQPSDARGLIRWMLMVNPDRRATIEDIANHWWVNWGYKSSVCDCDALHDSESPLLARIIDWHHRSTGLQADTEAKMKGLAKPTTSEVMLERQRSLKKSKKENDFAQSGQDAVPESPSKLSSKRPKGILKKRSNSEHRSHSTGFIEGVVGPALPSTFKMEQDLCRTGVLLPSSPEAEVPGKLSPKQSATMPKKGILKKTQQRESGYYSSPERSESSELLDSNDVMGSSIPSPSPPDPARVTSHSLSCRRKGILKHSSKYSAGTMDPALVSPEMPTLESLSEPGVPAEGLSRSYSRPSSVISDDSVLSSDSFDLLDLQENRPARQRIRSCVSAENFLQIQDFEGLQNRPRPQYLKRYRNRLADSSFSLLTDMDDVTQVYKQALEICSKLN
# [14] = biological target: Tyrosine-protein kinase Blk (Homo sapiens) (UniProt P51451); assay: Inhibition of BLK (unknown origin) at 0.5 uM assessed as competition rate relative to control
# Sequence of Tyrosine-protein kinase Blk (Homo sapiens) (P51451 2-505 limits assumed): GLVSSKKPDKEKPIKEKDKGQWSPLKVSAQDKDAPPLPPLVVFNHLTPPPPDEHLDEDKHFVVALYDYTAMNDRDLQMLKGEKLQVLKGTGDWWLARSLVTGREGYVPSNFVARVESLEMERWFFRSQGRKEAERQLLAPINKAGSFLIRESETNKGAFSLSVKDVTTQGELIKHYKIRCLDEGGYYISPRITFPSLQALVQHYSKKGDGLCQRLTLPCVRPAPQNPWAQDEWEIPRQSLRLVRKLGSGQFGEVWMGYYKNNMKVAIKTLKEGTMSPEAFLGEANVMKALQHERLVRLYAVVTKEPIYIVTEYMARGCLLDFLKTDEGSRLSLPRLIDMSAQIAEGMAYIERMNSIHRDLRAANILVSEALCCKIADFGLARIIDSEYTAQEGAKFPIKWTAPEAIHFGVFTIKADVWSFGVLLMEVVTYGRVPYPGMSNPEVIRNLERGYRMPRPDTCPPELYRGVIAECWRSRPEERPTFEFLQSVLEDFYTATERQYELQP
# BaF3 = assay: cells; conditions: Mus musculus, BaF3, 72 h
structure (smiles),measurement,setting,value
C=CC(=O)Nc1cc(Nc2ncc(Cl)c(O[C@@H]3CO[C@H]4[C@@H]3OC[C@H]4OC)n2)ccc1N(C)CCN(C)C,half-life,[1],54.6 min
same,half-life,[2],58.8 min
same,inhibition,[3],30%
same,inhibition,[4],36%
same,IC50,[5],4.73 µM
same,inhibition,[6],Active
same,inhibition,[7],Active
same,Activity,U-937 [8],9.85%
same,Activity,U-937 [9],17.86%
same,Activity,U-937 [10],Active
same,Activity,U-937 [11],Active
same,Activity,U-937 [12],Dde
same,inhibition,[13],70%
same,inhibition,[14],40%
same,IC50,BaF3,0.134 µM
